Experimental data from ChEMBL document CHEMBL1129184, “Synthesis of water-soluble prodrugs of the cytotoxic agent Combretastatin A4” (Bioorg Med Chem Lett, 1996).

Tests used:
[1] = Solubility was determined; assay type: physicochemical
[2] = Percent of the mice tested that exhibited toxicity after a dose of 150 mg/kg; assay type: organism-based; design: dose 150 mg/kg; conditions: mouse, in vivo

Row | SMILES | solubility [1] [mg/mL] | Activity [2] [%]
1 | COc1ccc(/C=C\c2cc(OC)c(OC)c(OC)c2)cc1O.N | ~2.8 | –
2 | COc1ccc(/C=C\c2cc(OC)c(OC)c(OC)c2)cc1[O-].[K+] | – | 60
